The values that follow come from patent US20230220035A1 (DONG-A ST CO., LTD., published 2023).

Like-named read-outs stand apart in the source and are kept apart here.

Series [1] can be described thus: in vivo. The note with it: mouse.
From the text: (§1) ICR mice were used to evaluate the pharmacokinetics in mice of the acylated oxyntomodulin peptide analogs according to the present invention.
Series [2] can be described thus: in vivo. The settings on record: cynomolgus monkey, sc.
From the text: (§2) Cynomolgus monkeys were used to evaluate the pharmacokinetics in monkeys of the acylated oxyntomodulin peptide analogs according to the present invention.
The target of series [3] is T1, GLP-1 receptor (Homo sapiens, UniProt P43220). Description: Human GLP-1 receptor activation assay (CRE-luciferase). Type of series: cell-based. On the set-up: host or cells: CHO-K1. The settings on record: for Emax: CHO-K1, 6 h, read-out: GLP-1 receptor Maximum activation (% vs GLP-1); for EC50: CHO-K1 cells transiently transfected, luciferase, 6 hours, 0.1% BSA.
Target sequence in this assay (P43220 24-463): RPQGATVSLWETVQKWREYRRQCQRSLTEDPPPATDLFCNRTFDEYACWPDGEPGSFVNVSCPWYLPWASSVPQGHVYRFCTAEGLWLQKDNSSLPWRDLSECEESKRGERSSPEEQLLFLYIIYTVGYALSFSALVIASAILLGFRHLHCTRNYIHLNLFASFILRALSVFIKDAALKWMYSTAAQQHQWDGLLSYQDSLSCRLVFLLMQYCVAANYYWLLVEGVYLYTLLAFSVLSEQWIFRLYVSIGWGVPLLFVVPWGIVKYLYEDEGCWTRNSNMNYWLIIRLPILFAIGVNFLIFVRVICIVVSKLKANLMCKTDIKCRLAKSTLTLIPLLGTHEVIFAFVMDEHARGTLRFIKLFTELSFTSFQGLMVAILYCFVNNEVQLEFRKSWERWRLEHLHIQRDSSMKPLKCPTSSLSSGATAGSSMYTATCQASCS
Series [4] addresses T2, glucagon receptor (Homo sapiens, UniProt P47871). Nature of the series: Human glucagon receptor activation assay (CRE-luciferase). It counts as cell-based. Further details: host or cells: CHO-K1. The note with it: CHO-K1 cells transiently transfected; for Emax: 6 h, relative to glucagon, read-out: GCG receptor Maximum activation (% vs GCG); for EC50: 6 hours, 0.1% BSA, read-out: GCG receptor EC50.
Target sequence in this assay (P47871 26-477): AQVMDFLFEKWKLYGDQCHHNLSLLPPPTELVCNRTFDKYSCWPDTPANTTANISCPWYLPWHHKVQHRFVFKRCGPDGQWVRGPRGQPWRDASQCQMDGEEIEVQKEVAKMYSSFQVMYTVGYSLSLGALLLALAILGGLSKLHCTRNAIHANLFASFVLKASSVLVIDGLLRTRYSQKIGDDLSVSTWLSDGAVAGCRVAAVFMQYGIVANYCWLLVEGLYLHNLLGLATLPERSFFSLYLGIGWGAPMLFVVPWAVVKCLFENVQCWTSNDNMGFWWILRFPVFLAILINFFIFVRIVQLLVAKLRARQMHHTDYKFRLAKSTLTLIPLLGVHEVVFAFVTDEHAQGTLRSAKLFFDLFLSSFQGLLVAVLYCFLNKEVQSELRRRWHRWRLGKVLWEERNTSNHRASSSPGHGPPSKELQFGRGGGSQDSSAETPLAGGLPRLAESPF

In series [5] the target is T1, GLP-1 receptor. The note with it: read-out: EC50 to the GLP-1 receptor; from Korean Patent Application No. 2017-0103798 / 2018-0095717; cited from earlier work.
Target sequence in this assay (P43220 24-463, species assumed): as the sequence (P43220 24-463) above
The target of series [6] is T2, glucagon receptor. The note with it: from Korean Patent Application No. 2017-0103798 / 2018-0095717; cited from earlier work.
Target sequence in this assay (P47871 26-477, species assumed): as the sequence (P47871 26-477) above
The nature of series [7]: Single-dose pharmacokinetic profile in mice. The note with it: mouse.
From the text: as §1
A short description of series [8]: Single-dose pharmacokinetic profile in monkeys. The note with it: cynomolgus monkey, plasma, sc, 100 nmmol/kg, Monkey PK (S.C. half-life), single S.C. dose 100 nmmol/kg.
From the text: as §2
The test system of series [9] is overweight and obese patients. The note with it: subcutaneously for 4 weeks, 3 times per day; cited from earlier work.
Where [10] appears, read: ICR, sc, Mouse PK (S.C. half-life).

On to `CCCCCCCCCCCCCCCCCC(=O)N[C@@H](CCC(=O)NCCOCCOCC(=O)NCCOCCOCC(=O)NCCCC[C@H](NC(=O)[C@H](CC(=O)O)NC(=O)[C@H](CO)NC(=O)[C@@H](NC(=O)[C@H](Cc1ccccc1)NC(=O)[C@@H](NC(=O)CNC(=O)[C@H](CCC(N)=O)NC(=O)C(C)(C)NC(=O)[C@@H](N)Cc1c[nH]cn1)[C@@H](C)O)[C@@H](C)O)C(=O)N[C@@H](CO)C(=O)N[C@@H](CCCCN)C(=O)N[C@@H](Cc1ccc(O)cc1)C(=O)N[C@@H](CC(C)C)C(=O)N[C@@H](CC(=O)O)C(=O)NC(C)(C)C(=O)N[C@@H](CCCNC(=N)N)C(=O)N[C@@H](CCCNC(=N)N)C(=O)N[C@@H](C)C(=O)N[C@@H](CCC(N)=O)C(=O)N[C@@H](CC(=O)O)C(=O)N[C@@H](Cc1ccccc1)C(=O)N[C@H](C(=O)N[C@@H](CCC(N)=O)C(=O)N[C@@H](Cc1c[nH]c2ccccc12)C(=O)N[C@@H](CC(C)C)C(=O)N[C@@H](CCSC)C(=O)N[C@@H](CC(N)=O)C(=O)N[C@H](C(=O)N[C@@H](CCCCN)C(=O)N[C@@H](CCC(=O)O)C(=O)N[C@@H](Cc1ccc(O)cc1)C(=O)N[C@@H](CCC(=O)O)C(=O)N[C@@H](CCCCNC(=O)CCCCCCCCCCCCC(=O)O)C(=O)N[C@@H](CCC(=O)O)C(=O)N[C@@H](Cc1ccc(O)cc1)C(=O)N[C@@H](CCC(=O)O)C(=O)O)[C@@H](C)O)C(C)C)C(=O)O` [Compound 1], for which the half-life in “in vivo [1]” (setting [10]) was more than 6 h; in the series “in vivo [1]” (ICR, sc, half-life in mice) it was more than 6 h; in “in vivo [2]” (Monkey PK (S.C. half-life)), 12 to 18 h; in the series “in vivo [2]” (monkey PK half-life) it was more than 12 h. The Emax on GLP-1 receptor [3] was found to be 102%; on glucagon receptor [4], 107%. The EC50 on GLP-1 receptor [3] and on glucagon receptor [4] was less than 0.1 nM throughout.
For the compound `CCCCCCCCCCCCCCCCCC(=O)N[C@@H](CCC(=O)NCCOCCOCC(=O)NCCOCCOCC(=O)NCCCC[C@H](NC(=O)[C@H](CC(=O)O)NC(=O)[C@H](CO)NC(=O)[C@@H](NC(=O)[C@H](Cc1ccccc1)NC(=O)[C@@H](NC(=O)CNC(=O)[C@H](CCC(N)=O)NC(=O)C(C)(C)NC(=O)[C@@H](N)Cc1c[nH]cn1)[C@@H](C)O)[C@@H](C)O)C(=O)N[C@@H](CO)C(=O)N[C@@H](CCCCN)C(=O)N[C@@H](Cc1ccc(O)cc1)C(=O)N[C@@H](CC(C)C)C(=O)N[C@@H](CC(=O)O)C(=O)NC(C)(C)C(=O)N[C@@H](CCCNC(=N)N)C(=O)N[C@@H](CCCNC(=N)N)C(=O)N[C@@H](C)C(=O)N[C@@H](CCC(N)=O)C(=O)N[C@@H](CC(=O)O)C(=O)N[C@@H](Cc1ccccc1)C(=O)N[C@H](C(=O)N[C@@H](CCC(N)=O)C(=O)N[C@@H](Cc1c[nH]c2ccccc12)C(=O)N[C@@H](CC(C)C)C(=O)N[C@@H](CCSC)C(=O)N[C@@H](CC(N)=O)C(=O)N[C@H](C(=O)N[C@@H](CCCCN)C(=O)N[C@@H](CCC(=O)O)C(=O)N[C@@H](Cc1ccc(O)cc1)C(=O)N[C@@H](CCC(=O)O)C(=O)N[C@@H](CCCCNC(=O)CCCCCCCCCCCCCCC(=O)O)C(=O)N[C@@H](CCC(=O)O)C(=O)N[C@@H](Cc1ccc(O)cc1)C(=O)N[C@@H](CCC(=O)O)C(=O)O)[C@@H](C)O)C(C)C)C(=O)O` [Compound 2], the half-life was more than 6 h in the series “in vivo [1]” (setting [10]); more than 6 h in “in vivo [1]” (ICR, sc, half-life in mice); 12 to 18 h in the series “in vivo [2]” (Monkey PK (S.C. half-life)); more than 12 h in the series “in vivo [2]” (monkey PK half-life). Further, the Emax on GLP-1 receptor [3] stood at 104%; at glucagon receptor [4] it was 100%. Besides, the EC50 at GLP-1 receptor [3] and at glucagon receptor [4] was 0.1 to 1 nM in each case.
For `CCCCCCCCCCCCCCCCCC(=O)N[C@@H](CCC(=O)NCCOCCOCC(=O)NCCOCCOCC(=O)NCCCC[C@H](NC(=O)[C@H](CC(=O)O)NC(=O)[C@H](CO)NC(=O)[C@@H](NC(=O)[C@H](Cc1ccccc1)NC(=O)[C@@H](NC(=O)CNC(=O)[C@H](CCC(N)=O)NC(=O)C(C)(C)NC(=O)[C@@H](N)Cc1c[nH]cn1)[C@@H](C)O)[C@@H](C)O)C(=O)N[C@@H](CO)C(=O)N[C@@H](CCCCN)C(=O)N[C@@H](Cc1ccc(O)cc1)C(=O)N[C@@H](CC(C)C)C(=O)N[C@@H](CC(=O)O)C(=O)NC(C)(C)C(=O)N[C@@H](CCCNC(=N)N)C(=O)N[C@@H](CCCNC(=N)N)C(=O)N[C@@H](C)C(=O)N[C@@H](CCC(N)=O)C(=O)N[C@@H](CC(=O)O)C(=O)N[C@@H](Cc1ccccc1)C(=O)N[C@H](C(=O)N[C@@H](CCC(N)=O)C(=O)N[C@@H](Cc1c[nH]c2ccccc12)C(=O)N[C@@H](CC(C)C)C(=O)N[C@@H](CCSC)C(=O)N[C@@H](CC(N)=O)C(=O)N[C@H](C(=O)N[C@@H](CCCCN)C(=O)N[C@@H](CCC(=O)O)C(=O)N[C@@H](Cc1ccc(O)cc1)C(=O)N[C@@H](CCC(=O)O)C(=O)N[C@@H](CCCCNC(=O)CCCCCCCCCCCCCCCCC(=O)O)C(=O)N[C@@H](CCC(=O)O)C(=O)N[C@@H](Cc1ccc(O)cc1)C(=O)N[C@@H](CCC(=O)O)C(=O)O)[C@@H](C)O)C(C)C)C(=O)O` [Compound 3], the EC50 on GLP-1 receptor [5] is less than 0.01 nM; on glucagon receptor [6], less than 0.01 nM; at GLP-1 receptor [3] it was 0.1 to 1 nM; at glucagon receptor [4], 0.1 to 1 nM. For the same compound, the half-life is more than 6 h in the series “in vivo [1]” (setting [10]); more than 6 h in “in vivo [1]” (ICR, sc, half-life in mice); 3.3 h in “in vivo [1]” (half-life, pharmacokinetic evaluation in mice (background)); more than 24 h in the series “in vivo [2]” (Monkey PK (S.C. half-life)); more than 24 h in “in vivo [2]” (monkey PK half-life). Moreover, the Emax on GLP-1 receptor [3] and on glucagon receptor [4] was 98.3% throughout.
For the compound `CCCCCCCCCCCCCCCCCC(=O)N[C@@H](CCC(=O)NCCOCCOCC(=O)NCCOCCOCC(=O)NCCCC[C@H](NC(=O)[C@H](CC(=O)O)NC(=O)[C@H](CO)NC(=O)[C@@H](NC(=O)[C@H](Cc1ccccc1)NC(=O)[C@@H](NC(=O)CNC(=O)[C@H](CCC(N)=O)NC(=O)C(C)(C)NC(=O)[C@@H](N)Cc1c[nH]cn1)[C@@H](C)O)[C@@H](C)O)C(=O)N[C@@H](CO)C(=O)N[C@@H](CCCCN)C(=O)N[C@@H](Cc1ccc(O)cc1)C(=O)N[C@@H](CC(C)C)C(=O)N[C@@H](CC(=O)O)C(=O)NC(C)(C)C(=O)N[C@@H](CCCNC(=N)N)C(=O)N[C@@H](CCCNC(=N)N)C(=O)N[C@@H](C)C(=O)N[C@@H](CCC(N)=O)C(=O)N[C@@H](CC(=O)O)C(=O)N[C@@H](Cc1ccccc1)C(=O)N[C@H](C(=O)N[C@@H](CCC(N)=O)C(=O)N[C@@H](Cc1c[nH]c2ccccc12)C(=O)N[C@@H](CC(C)C)C(=O)N[C@@H](CCSC)C(=O)N[C@@H](CC(N)=O)C(=O)N[C@H](C(=O)N[C@@H](CCCCN)C(=O)N[C@@H](CCC(=O)O)C(=O)N[C@@H](Cc1ccc(O)cc1)C(=O)N[C@@H](CCC(=O)O)C(=O)N[C@@H](CCCCNC(=O)CCCCCCCCCCCCCCCCC(N)=O)C(=O)N[C@@H](CCC(=O)O)C(=O)N[C@@H](Cc1ccc(O)cc1)C(=O)N[C@@H](CCC(=O)O)C(=O)O)[C@@H](C)O)C(C)C)C(=O)O` [Compound 7], the half-life is more than 6 h in the series “in vivo [1]” (setting [10]); more than 6 h in “in vivo [1]” (ICR, sc, half-life in mice); more than 24 h in “in vivo [2]” (Monkey PK (S.C. half-life)); more than 24 h in the series “in vivo [2]” (monkey PK half-life). The values for the Emax on GLP-1 receptor [3] and at glucagon receptor [4] were 90.8% and 100%, respectively. For the same compound, the EC50 at GLP-1 receptor [3] and at glucagon receptor [4] was less than 0.1 nM throughout.
Consider `CCCCCCCCCCCCCCCC(=O)N[C@@H](CCC(=O)NCCCC[C@H](NC(=O)[C@H](CC(=O)O)NC(=O)[C@H](CO)NC(=O)[C@@H](NC(=O)[C@H](Cc1ccccc1)NC(=O)[C@@H](NC(=O)CNC(=O)[C@H](CCC(N)=O)NC(=O)[C@H](CO)NC(=O)[C@@H](N)Cc1c[nH]cn1)[C@@H](C)O)[C@@H](C)O)C(=O)N[C@@H](CO)C(=O)N[C@@H](CCC(=O)O)C(=O)N[C@@H](Cc1ccc(O)cc1)C(=O)N[C@@H](CC(C)C)C(=O)N[C@@H](CC(=O)O)C(=O)N[C@@H](CO)C(=O)N[C@@H](CCC(=O)O)C(=O)N[C@@H](CCCNC(=N)N)C(=O)N[C@@H](C)C(=O)N[C@@H](CCCNC(=N)N)C(=O)N[C@@H](CC(=O)O)C(=O)N[C@@H](Cc1ccccc1)C(=O)N[C@H](C(=O)N[C@@H](C)C(=O)N[C@@H](Cc1c[nH]c2ccccc12)C(=O)N[C@@H](CC(C)C)C(=O)N[C@@H](CCC(=O)O)C(=O)N[C@@H](C)C(=O)NCC(=O)NCC(=O)O)C(C)C)C(=O)O` [MEDI0382], for which the half-life in series [7] (ICR, plasma, sc, 30 nmmol/kg, Mouse PK (S.C. half-life), ICR mice, single S.C. dose 30 nmmol/kg) is less than 6 h; in series [7] (in vivo, half-life, pharmacokinetic evaluation in mice (background), mice, dose not given), 4 h; in series [8] it was less than 6 h.
“HSQGTFTSDYSKYLDSRRAQDFVQWLMNTKRNRNNIA (HSQGTFTSDKSKYLDSRRAQDFVQWLMNTKRNRNNIA; listed as Homo sapiens) [oxyntomodulin]”: the “body weight loss on average” value in series [9] is 2.3 kg.
